Patent publication US20250177405A1, “METHODS OF TREATING NEUROLOGICAL AND CARDIOVASCULAR CONDITIONS” (ASTROCYTE PHARMACEUTICALS, INC., priority 2021, published 2025)
Entries after “also recorded” stand apart in the source; their conditions may differ.

Experiments:
A3 receptor in the mouse = biological target: T1, A3 receptor in the mouse (Mus musculus, UniProt Q61618); assay: affinity at mouse A3 receptor; type: binding
T1 sequence (Q61618 1-319): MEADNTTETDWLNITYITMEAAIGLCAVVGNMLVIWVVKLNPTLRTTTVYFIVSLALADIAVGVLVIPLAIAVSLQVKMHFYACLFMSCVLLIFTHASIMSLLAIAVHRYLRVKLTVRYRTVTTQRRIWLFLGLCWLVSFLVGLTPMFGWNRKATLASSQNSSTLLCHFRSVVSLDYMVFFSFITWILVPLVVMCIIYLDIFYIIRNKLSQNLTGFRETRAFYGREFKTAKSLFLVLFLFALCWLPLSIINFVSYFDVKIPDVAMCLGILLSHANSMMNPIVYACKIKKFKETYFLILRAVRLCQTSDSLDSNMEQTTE
Procedure: Similar competition binding assays may be conducted using HEK293 cell membranes expressing mARs using [^125I]I-AB-MECA to label A1 or A3ARs and [^3H]CGS21680 to label A2AARs. IC50 values were converted to Ki values using known methods. Nonspecific binding was determined in the presence of 100 μM NECA.

[1] = tested on: traumatic brain injury (TBI) in mice; assay: mouse traumatic brain injury (TBI) model; details: in vivo
Procedure: Animals and traumatic brain injury (TBI): TBI is performed with a controlled closed skull injury model as described in Talley-Watts et al. 2012 (J. Neurotrauma 30, 55-66). Following the method described therein, a pneumatic impact device is used to generate a moderate TBI leaving the skull and dura matter intact. To achieve this, C57BL/6 mice are anesthetized with isoflurane (3% induction, 1% maintenance) in 100% oxygen. A body temperature of 37° C. is maintained using a temperature-controlled heated surgical table. A small midline incision is made on the scalp using aseptic surgical techniques. A 5 mm stainless steel disc is positioned on the skull and fixed using superglue on the right parietal bone between bregma and lamda over the somatosensory cortex. The mouse is then positioned on a stage directly under the pneumatic impact tip. […] Mice are placed in a Thermo-Intensive Care Unit (Braintree Scientific model FV-1; 37° C.; 27% O2) and monitored until fully awake and moving freely. […]
Western Blot Analysis for GFAP: At selected survival times, mice are anesthetized under isoflurane and sacrificed. […] The homogenate is transferred to a 2 mL tube and centrifuged at 1000 g for 10 minutes at 4° C. and the supernatant is collected and analyzed. Protein concentration is determined by the BCA assay using a 1:50 dilution. […]

[2] = I-1 plasma and CSF concentrations during bolus/infusion regimen in tMCAO efficacy study; type: in vivo, Macaca fascicularis; details: for predicted I-1 [Plasma]: 22 h infusion; for Measured I-1 [CSF] / measured I-1 [Plasma]: 22 h, n = 4
Procedure: Macaques received a bolus dose of vehicle (40% PEG400 in 0.9% saline) or I-1 into a saphenous vein 2 h after occlusion (2 h prior to restoration of MCA blood flow), followed immediately by a 22 h intravenous infusion. This dosing regimen was designed to rapidly achieve and maintain pre-determined plasma and cerebrospinal fluid (CSF) steady-state concentrations of I-1 based on its pharmacokinetics previously determined in näive and MCA occluded macaques (Tables A-C below).
During MRI, vehicle or I-1 were infused into the saphenous vein via a syringe pump (TOP5500E, TOP Corp., Tokyo, Japan). Infusion following MRI was maintained via a portable, programmable IPRECIO® Dual infusion pump (DMP-100; Primetech Corp., Tokyo, Japan) ported into a jugular venous line, both being secured in a jacket. Methods for pharmacokinetic sampling and bioanalytical analysis of plasma and CSF are described below.
Blood samples (1.0 mL) were withdrawn into heparinized tubes from either the opposite cephalic or the femoral vein at 3, 6, 24, 48, 72 hours and 5 days post-occlusion. Heparinized blood was centrifuged at 4° C. at 1,800×g for 10 min. In the same animals, 0.3-0.5 mL of cerebrospinal fluid (CSF) was withdrawn at 6 and 24 hours post-occlusion. Macaques were sedated with ketamine (10 mg/kg, i.m.), CSF was collected via puncture of the cisterna magna. Plasma and CSF samples were flash frozen in liquid nitrogen and then stored at −70 C until shipment for processing. Samples were shipped on dry ice. Plasma and CSF concentrations of I-1 were determined by LC/MS/MS utilizing standard curves (performed at the Department of Bio Research, Kamakura Techno-Science, Inc. Kanagawa, Japan). Lower limits of quantitation for compound I-1 were 1.0 ng/mL and 0.1 ng/mL for plasma and CSF, respectively.

brain A1R/A3R = assay: estimated brain receptor occupancy of I-1 in rodent efficacy studies; type: in vivo; details: mouse and rat efficacy models, from brain unbound drug concentrations
Text: Receptor occupancy is a mass action relationship:
The percentage of a receptor occupied by an agonist or antagonist is a function of the drug concentration and the drug affinity for the receptor target. The challenge is that drug concentrations at the target site (in this case, brain, and CSF) can vary by species, as can affinity for the drug target. Affinity of I-1 for its receptor target can vary by as much as 5-fold between species. Accordingly, for each species, it is necessary to determine the I-1 affinity for its target as well as the concentration of I-1 at each administered dose in a relevant matrix.
In our rodent mouse and rat efficacy studies, we were able to directly determine brain unbound drug concentrations at efficacious doses. In those efficacy models, the estimated receptor occupancies associated with efficacy were around 1% or less.

[3] = High dose group, 5.2 mg/kg, 2.8 mg/kg/h, mean ± SEM
[4] = Low dose group, 0.47 mg/kg, 0.25 mg/kg/h, mean ± SEM
[5] = Mid dose group, 1.7 mg/kg, 0.9 mg/kg/h, mean ± SEM

For CSc1nc(N)c2ncn([C@H]3C(O)C(O)[C@]4(CO)C[C@H]34)c2n1 (stereo in doubt) [Compound I-1], the “difference in affinity between I-1 and Cl-IB-MECA” value (A3 receptor in the mouse) was “approximately 25,000 fold”, the “efficacy in mouse TBI model” value [1] was “effective; also recorded: significant efficacy” and the “plasma I-1 after end of infusion” value ([2]; 24 h following termination of Mid and High dose infusions) was “Measurable concentrations”. The “predicted I-1 [Plasma]” value ([2]; High dose group, 5.2 mg/kg bolus, 2.8 mg/kg/h) was 1660 ng/mL, the “Measured I-1 [CSF]” value [2, 3] was 108 ± 35 ng/mL and the “measured I-1 [Plasma]” value [2, 3] was 1127 ± 246 ng/mL. The “predicted I-1 [Plasma]” value ([2]; Low dose group, 0.47 mg/kg bolus, 0.25 mg/kg/h) was 150 ng/mL, the “Measured I-1 [CSF]” value [2, 4] was 8.8 ± 2.6 ng/mL and the “measured I-1 [Plasma]” value [2, 4] was 186 ± 24 ng/mL. For the same compound, the “predicted I-1 [Plasma]” value ([2]; Mid dose group, 1.7 mg/kg bolus, 0.9 mg/kg/h) was 540 ng/mL, the “Measured I-1 [CSF]” value [2, 5] was 16.8 ± 5.7 ng/mL and the “measured I-1 [Plasma]” value [2, 5] was 483 ± 23 ng/mL. For the same compound, the “predicted I-1 [Plasma]” value ([2]; Very Low dose group, 0.11 mg/kg bolus, 0.06 mg/kg/h) was 35 ng/mL, the “measured I-1 [Plasma]” value ([2]; Very Low dose group, 0.11 mg/kg, 0.06 mg/kg/h, mean ± SEM of average over 22-hour infusion) was 32 ± 11 ng/mL and the “Measured I-1 [CSF]” value ([2]; Very Low dose group, 0.11 mg/kg, 0.06 mg/kg/h, mean ± SEM) was 2.1 ± 0.4 ng/mL. For the same compound, the “average plasma and CSF concentrations relative to targets” value ([2]; combined bolus/infusion regimen, all dose levels) was ≤ 2 fold, the plasma/CSF ratio ([2]; correlation of I-1 plasma and CSF concentrations, FIG. 5C) was “approximately 10” and the “estimated receptor occupancies associated with efficacy” value (brain A1R/A3R) was ≤ 1%.
